From publication PMC7155171, “Probing the Open Global Health Chemical Diversity Library for Multistage-Active Starting Points for Next-Generation Antimalarials” (ACS Infectious Diseases, 2020)
Like-named read-outs stand apart in the source and are kept apart here.

How the values were obtained:
[1] = test system: HepG2-A16-CD81 hepatocytes; experiment: cells; parameters: Uninfected hepatocyte viability, CellTiter-Glo luminescence; details: sheet CDD Export 1;, cytotoxicity primary screen, read-out: Table S5. Liver stage reconfirmation data / HepG2 Cytotoxicity primary screen (2uM): % Inhibition
Experimental: For the screen, 5 μL of HepG2-A16-CD81 hepatocytes containing 3 × 10^3 cells was seeded into 1536-well plates, which had been prespotted with 10 nL of library compound (2 μM final assay concentration (Figure 1)) and incubated overnight. For PbLuc infected plates, approximately 750 purified sporozoites in 5 μL of screening media were added to each well and incubated for 48 h before measuring luciferase activity. Compounds were tested for toxicity in parallel (see Methods) by measuring uninfected hepatocyte viability using CellTiter-Glo. […] This hit rate was slightly lower than expected for an agnostic library, which prompted us to rescreen the entire library at 10 μM. The PbLuc and cytotoxicity assay plates for this second replicate would be stamped in-house with 50 nL of library compound per well, using the same compound plates as the sexual stage screen described below. All the assay parameters were kept similar, except the change in concentration and shortening the time the compounds spent in each well prior to infection. […] All potential false positive effectors from the CellTiter-Glo assay were filtered from subsequent studies (Table S1). Naturally, there were more primary hits from the 10 μM than the 2 μM screen due to the higher testing concentration. For reconfirmation, we sourced all the hits that inhibited PbLuc at >70% and mean HepG2 at <50% in the 2 μM screen or PbLuc at >60% in both 2 and 10 μM screens and mean HepG2 at <50%. The resulting compounds were acquired as DMSO stocks and retested in the dose response (50–2.82 × 10^–4 μM or 25–141.13 × 10^–6 μM) against PbLuc and uninfected hepatocytes (Table S5). […] The majority of these compounds were weak inhibitors, although 18 submicromolar hits were found (Table S5).

P. falciparum Dd2 = experiment: SYBR green I asexual blood stage proliferation assay (96 h); format: cell-based, Plasmodium falciparum; details: Plasmodium falciparum, DD2, 11-pt dose response, 96hr
[2] = test system: P. falciparum Dd2 (PfLuc) line expressing firefly luciferase, asexual blood stage; experiment: microbe, parasite or virus in culture; format: cell-based, Plasmodium falciparum; details: Plasmodium falciparum
[3] = test system: P. falciparum (NF54) stage V gametocytes; experiment: Stage V gametocyte viability assay (MitoTracker Red CMXRos high content imaging); format: cell-based, Plasmodium falciparum; details: Plasmodium falciparum; for inhibition at 2 µM: read-out: Stg V Gam primary screen: Inhibition % (2uM) (n=2)
[4] = Sybr Green I, read-out: CDD P. falciparum Sybr Green I ABS 11-pt Reconfirmation Dose Response (96hr): IC50
[5] = Sybr Green I, read-out: CDD P. falciparum Sybr Green I ABS 11-pt Reconfirmation Dose Response (96hr): Maximum inhibition (%)
[6] = DD2, read-out: CDD P. falciparum Luciferase ABS 11-pt Reconfirmation Dose Response (48hr): IC50 (μM), 11-pt dose response, 48hr
[7] = DD2, 8-pt dose response, 96hr, read-out: CDD P. falciparum Luciferase ABS 8-pt Reconfirmation Dose Response (96hr): IC50
[8] = DD2, 8-pt dose response, 96hr, read-out: CDD P. falciparum Luciferase ABS 8-pt Reconfirmation Dose Response (96hr): Maximum inhibition (%)
[9] = DD2, 11-pt dose response, 48hr, read-out: CDD P. falciparum Luciferase ABS 11-pt Reconfirmation Dose Response (48hr): Maximum inhibition (%)
[10] = DD2, 11-pt dose response, 96hr, read-out: CDD P. falciparum Luciferase ABS 11-pt Reconfirmation Dose Response (96hr): IC50
[11] = DD2, 11-pt dose response, 96hr, read-out: CDD P. falciparum Luciferase ABS 11-pt Reconfirmation Dose Response (96hr): Maximum inhibition (%)
[12] = NF54, 72 h, read-out: Stg V Gam dose response IC50 (µM) (n=3), 10-point dose response, n=3, 72 h
[13] = read-out: P. falciparum Sybr Green I ABS 11-pt Reconfirmation Dose Response (96hr): IC50
[14] = read-out: P. falciparum Sybr Green I ABS 11-pt Reconfirmation Dose Response (96hr): Maximum inhibition (%)
[15] = DD2, read-out: P. falciparum Luciferase ABS 11-pt Reconfirmation Dose Response (48hr): IC50, 11-pt dose response, 48hr
[16] = DD2, 8-pt dose response, 96hr, read-out: P. falciparum Luciferase ABS 8-pt Reconfirmation Dose Response (96hr): IC50
[17] = DD2, 8-pt dose response, 96hr, read-out: P. falciparum Luciferase ABS 8-pt Reconfirmation Dose Response (96hr): Maximum inhibition (%)
[18] = DD2, 11-pt dose response, 96hr, read-out: P. falciparum Luciferase ABS 11-pt Reconfirmation Dose Response (96hr): IC50
[19] = DD2, 11-pt dose response, 96hr, read-out: P. falciparum Luciferase ABS 11-pt Reconfirmation Dose Response (96hr): Maximum inhibition (%)
[20] = NF54, 72 h, read-out: GAM V IC50, stage V gametocytes, 72 h

## O=S(=O)(c1ccc(Cl)s1)N1CCN(Cc2nc(-c3ccco3)cs2)CC1 [DDD01027755]
[1]
  inhibition at 2 µM: 12.1%

## CC(C)(C)NC(=O)N1CCC(Oc2ccc(C(F)(F)F)cn2)CC1 [DDD01028321]
[1]
  inhibition at 2 µM: -4.73%

## COc1cccc(CN2CCc3nc(C(=O)NCC(C)C)sc3CC2)c1 [DDD01030710]
[1]
  inhibition at 2 µM: -10.2%

## CC(=O)Nc1ncc(S(=O)(=O)Nc2ccc3c(c2)OCCO3)s1 [DDD01037671]
[1]
  inhibition at 2 µM: -2.36%

## Cn1cncc1CN1CCCC1c1cncc(Oc2ccc(Cl)cc2)n1 (stereo not shown) [DDD01059295]
[1]
  inhibition at 2 µM: 0.825%

## Cc1ncc(CN2CCOC(c3ccc(-c4ccccc4F)cn3)C2)s1 (stereo not shown) [DDD01059493]
[1]
  inhibition at 2 µM: -6.23%

## Cc1cc(-c2cnc(NCc3cccnc3)nc2C(C)(C)C)on1 [DDD01061148]
[1]
  inhibition at 2 µM: -8.43%

## COC1CCN(c2ccc(NC(=O)C3CC3)cc2C(F)(F)F)CC1 [DDD01061774]
[1]
  inhibition at 2 µM: 12.4%

## N#Cc1c(Cl)nsc1NCc1cccnc1OCC(F)(F)F [DDD01067853]
[1]
  inhibition at 2 µM: 4.29%

## COC(=O)c1sc(NCc2ccc(N3CCC(O)CC3)c(F)c2)nc1Cl [DDD01073922]
[1]
  inhibition at 2 µM: 5.85%

## Cc1nc(C(=O)NC2CCN(CCOc3ccc(Br)cc3)CC2)cs1 [DDD01079205]
[1]
  inhibition at 2 µM: 17.6%

## N#Cc1c(Cl)nsc1NCC1(c2ccccc2)CCC1 [DDD01079347]
[1]
  inhibition at 2 µM: 12%

## CCc1ccc(-c2ncc3c(n2)N(C)CCN(CCN(C)C)C3=O)cc1 [DDD01235938]
[1]
  inhibition at 2 µM: 4.38%

## CN(CCO)Cc1cc(Cl)ccc1OCC(O)CN1CCCCCC1 (stereo not shown) [DDD01243745, CN(CCO)CC1=CC(Cl)=CC=C1OCC(O)CN1CCCCCC1]
P. falciparum Dd2; [4]
  IC50: 1090 nM
P. falciparum Dd2; [5]
  Emax: 99.1%
[2]; [6]
  IC50: 2.92 µM
[2]; [7]
  IC50: 0.95 µM
[2]; [8]
  Emax: 93.5%
[2]; [9]
  Emax: 97%
[2]; [10]
  IC50: 1.45 µM
[2]; [11]
  Emax: 98.8%
[3]; [12]
  IC50: 5.69 µM
[3]; NF54, 72 h
  inhibition at 2 µM: 54.7%

## Cc1ccc(Sc2ccc(CN3CCC4(CCCNC4=O)C3)o2)cc1 (stereo not shown) [DDD01244322]
[1]
  inhibition at 2 µM: -4.2%

## OC1(CN2CCC(Oc3cccc(C(F)(F)F)c3)CC2)CCNC1 (stereo not shown) [DDD01245291, OC1(CN2CCC(CC2)OC2=CC=CC(=C2)C(F)(F)F)CCNC1]
P. falciparum Dd2; [4]
  IC50: 1930 nM
P. falciparum Dd2; [5]
  Emax: 96.4%
[2]; [6]
  IC50: 2.08 µM
[2]; [7]
  IC50: 0.88 µM
[2]; [8]
  Emax: 93.8%
[2]; [9]
  Emax: 95.9%
[2]; [10]
  IC50: 0.958 µM
[2]; [11]
  Emax: 99.5%
[3]; [12]
  IC50: 2.42 µM
[3]; NF54, 72 h
  inhibition at 2 µM: 50.1%

## Clc1ccccc1-c1cc(CNc2ncnc3c2CCNCC3)no1 [DDD01247009]
[1]
  inhibition at 2 µM: -1.07%

## CCc1ccc2nc(NCCCN(CCO)CCO)cc(C)c2c1 [DDD01247914, CCC1=CC=C2N=C(NCCCN(CCO)CCO)C=C(C)C2=C1]
P. falciparum Dd2; [4]
  IC50: 3610 nM
P. falciparum Dd2; [5]
  Emax: 94%
[2]; [6]
  IC50: 3.94 µM
[2]; [7]
  IC50: 1.07 µM
[2]; [8]
  Emax: 91.1%
[2]; [9]
  Emax: 92.3%
[2]; [10]
  IC50: 1.68 µM
[2]; [11]
  Emax: 99.8%
[3]; [12]
  IC50: 3.72 µM
[3]; NF54, 72 h
  inhibition at 2 µM: 59.7%

## CCc1[nH]c2c(CNc3cc(C)nc(NC)n3)cc(C)cc2c1C [DDD01250162, CCC1=C(C)C2=CC(C)=CC(CNC3=CC(C)=NC(NC)=N3)=C2N1]
P. falciparum Dd2; [13]
  IC50: 1550 nM
P. falciparum Dd2; [14]
  Emax: 94.1%
[2]; [15]
  IC50: > 12.5 µM
[2]; [16]
  IC50: 1.31 µM
[2]; [17]
  Emax: 92.3%
[2]; DD2, 11-pt dose response, 48hr, read-out: P. falciparum Luciferase ABS 11-pt Reconfirmation Dose Response (48hr): Maximum inhibition (%)
  Emax: 38.8%
[2]; [18]
  IC50: > 12.5 µM
[2]; [19]
  Emax: 45.4%
[3]; [20]
  IC50: 4.9 µM
[3]; [12]
  IC50: 4.9 µM
[3]; NF54, 72 h
  inhibition at 2 µM: 64.1%

## CCc1[nH]c2c(CNc3nc(C)cc(NC)n3)cc(C)cc2c1C [DDD01251782, CCC1=C(C)C2=CC(C)=CC(CNC3=NC(C)=CC(NC)=N3)=C2N1]
P. falciparum Dd2; [4]
  IC50: 696 nM
P. falciparum Dd2; [5]
  Emax: 98%
[2]; [6]
  IC50: 0.765 µM
[2]; [7]
  IC50: 0.63 µM
[2]; [8]
  Emax: 95.7%
[2]; [10]
  IC50: 0.158 µM
[2]; [11]
  Emax: 98.4%
[3]; NF54, read-out: Stg V Gam dose response IC50 (µM) (n=3), 10-point dose response, n=3, 72 h
  IC50: 3.76 µM
[3]; NF54, Table S6, 2uM, n=2, 72 h
  inhibition at 2 µM: 53.8%
[3]; NF54, stage V gametocytes, 72 h, read-out: GAM V IC50
  IC50: 3.76 µM

## NCC1CCN(C2CCN(c3ccc(-c4ccco4)cc3)CC2)C1 (stereo not shown) [DDD01252361, NCC1CCN(C1)C1CCN(CC1)C1=CC=C(C=C1)C1=CC=CO1]
P. falciparum Dd2; [4]
  IC50: 605 nM
P. falciparum Dd2; [5]
  Emax: 95.1%
[2]; [6]
  IC50: 3 µM
[2]; [7]
  IC50: 0.4 µM
[2]; [8]
  Emax: 95.9%
[2]; [9]
  Emax: 98.8%
[2]; [10]
  IC50: 1.8 µM
[2]; [11]
  Emax: 100%
[3]; [12]
  IC50: 1.9 µM
[3]; NF54, 72 h
  inhibition at 2 µM: 80.5%

## CCc1ccc(C2c3nc[nH]c3CCN2Cc2nccn2CC)nc1 (stereo not shown) [DDD01254473, CCN1C=CN=C1CN1CCC2=C(NC=N2)C1C1=CC=C(CC)C=N1]
P. falciparum Dd2; [13]
  IC50: 2640 nM
P. falciparum Dd2; [14]
  Emax: 78.6%
[2]; [15]
  IC50: 1.54 µM
[2]; [16]
  IC50: 1.2 µM
[2]; [17]
  Emax: 91.2%
[2]; [18]
  IC50: 0.448 µM
[2]; [19]
  Emax: 98.8%
[3]; [12]
  IC50: 0.056 µM
[3]; NF54, 72 h
  inhibition at 2 µM: 80.6%

## CN(Cc1nccs1)c1nc(-c2ccccn2)nc2c1CCNCC2 [DDD01258014, CN(CC1=NC=CS1)C1=NC(=NC2=C1CCNCC2)C1=CC=CC=N1]
P. falciparum Dd2; [4]
  IC50: 8500 nM
P. falciparum Dd2; [5]
  Emax: 68.8%
[2]; [6]
  IC50: 2.11 µM
[2]; [7]
  IC50: 1.09 µM
[2]; [8]
  Emax: 89.8%
[2]; [9]
  Emax: 76.9%
[2]; [10]
  IC50: 0.455 µM
[2]; [11]
  Emax: 98%
[2]; 96 h incubation, Dd2 luciferase, read-out: 96 hour Pfluc IC50
  IC50: 0.46 µM
[3]; [20]
  IC50: 1.18 µM
[3]; [12]
  IC50: 1.18 µM
[3]; NF54, 72 h
  inhibition at 2 µM: 75.5%
